Experimental data: patent publication US10227331B2 (priority 2015, dated 2019)

Experiments:
NDM-1 = NDM-1 (Klebsiella pneumoniae, UniProt C7C422); test: biochemical; type: biochemical; conditions: CCF2-FA substrate, 2 hours at 25° C; read-out: NDM-1 IC50
Method: (§1) Enzyme Activity: Determination of IC50
(§2) The Class B enzyme activities were measured in the presence of the test inhibitor in a fluorescence assay against a commercially available substrate consisting of a cephalosporin core linking 7-hydroxycoumarin to fluorescein (CCF2-FA). […] In a 384-well microplate, the test inhibitor was incubated with the metallo-β-lactamase enzyme and the substrate for 2 hours at 25° C. […] The IC50 value was determined from semi-logarithmic plots of enzyme inhibition versus inhibitor concentration, with a curve generated using a 4-parameter fit.

IMP-1 = IMP-1 (Serratia marcescens, UniProt P52699); test: biochemical; type: biochemical; conditions: CCF2-FA substrate, 2 hours at 25° C; read-out: IMP-1 IC50
Method: as §1, §2

[1] = test system: P. aeruginosa expressing IMP-1, efflux− (MB9799); test: Efflux: concentration of MBL inhibitor which restores susceptibility to imipenem; type: cell-based, Pseudomonas aeruginosa; conditions: imipenem at 2 μg/mL, in the presence of a class A, C, D serine β-lactamase inhibitor closely related to relebactam
Description: (§3) The strain background is Pseudomonas aeruginosa PAO1.

[2] = test system: P. aeruginosa expressing IMP-1, efflux+ (MB9798); type: cell-based, Pseudomonas aeruginosa; conditions: for P. aeruginosa expressing IMP-1, efflux+ (MB9798) MITC95: imipenem at 2 μg/mL, in the presence of a class A, C, D serine β-lactamase inhibitor closely related to relebactam; for Efflux ratio: ratio MITC95 PA_9798/MITC95 PA_9799
Description: as §3

VIM-1 = VIM-1 (Pseudomonas aeruginosa (strain ATCC 15692 / DSM 22644 / CIP 104116 / JCM 14847 / LMG 12228 / 1C / PRS 101 / PAO1), UniProt A0A0F7KYQ8); test: biochemical; conditions: CCF2-FA substrate, 2 hours at 25° C
Method: as §1, §2

[3] = test system: Klebsiella pneumoniae expressing VIM-1 (IHMA599644); type: cell-based; conditions: with imipenem 1 μg/ml, 95% inhibition of bacterial growth; for Klebsiella pneumoniae MITC95: VIM-1 (IHMA599644)
Method: (§4) Antibiotic Potentiation Activity: Determination of Synergistic Concentration
(§5) The bacterial strains tested included the clinical strains Escherichia coli expressing NDM-1 (CLB30005, CLB30016), Serratia marcescens expressing IMP-1 (CL5741), and Klebsiella pneumoniae expressing VIM-1 (IHMA599644). Inhibitor activity was measured in the presence and absence of imipenem in a 384-well microplate.
(§6) The clinical strains CLB30016, CL5741 and IHMA599644 were grown on trypticase soy agar containing 5% sheep's blood. The bacteria on agar plates were incubated at 35° C. with humidity overnight. The following day, individual colonies from each clinical strain were picked and resuspended in 5 ml saline to attain an OD600 of […], for CLB30016, CL5741 and IHMA599644, respectively. These were further diluted 1:100 into 1.1×CAMHB and used to inoculate the test wells as described below.
(§7) Imipenem in 10 mM 3-(N-morpholino)propanesulfonic acid (MOPS, pH 7) was stored in single use aliquots at −80° C. […] On the day of the assay, 4 μl of antibiotic was added to 45 ul of bacteria followed by 1 μl of test compound and mixed by pipetting and with an orbital shaker. The concentration of antibiotic used in the assay was 1 μg/ml. Microplates were covered and incubated at 35° C. for 22 hours to 24 hours. At the end of the incubation, absorbance was determined using a spectrophotometer.
(§8) For example, in general, the compounds of Examples 1-379 were determined to restore susceptibility to imipenem for one or more of the test organisms at concentrations of 100 μM or less.

[4] = test system: Serratia marcescens expressing IMP-1 (CL5741); type: cell-based; conditions: with imipenem 1 μg/ml, 95% inhibition of bacterial growth; for Serratia marcescens MITC95: IMP-1 (CL5741)
Method: as §4, §5, §6, §7, §8

[5] = test system: Escherichia coli expressing NDM-1 (CLB30005, CLB30016); type: cell-based; conditions: with imipenem 1 μg/ml, 95% inhibition of bacterial growth; for Escherichia coli MITC95: NDM-1 (CLB30016)
Method: as §4, §5, §6, §7, §8

Sequence of IMP-1 (P52699 whole entry, looked up, species assumed): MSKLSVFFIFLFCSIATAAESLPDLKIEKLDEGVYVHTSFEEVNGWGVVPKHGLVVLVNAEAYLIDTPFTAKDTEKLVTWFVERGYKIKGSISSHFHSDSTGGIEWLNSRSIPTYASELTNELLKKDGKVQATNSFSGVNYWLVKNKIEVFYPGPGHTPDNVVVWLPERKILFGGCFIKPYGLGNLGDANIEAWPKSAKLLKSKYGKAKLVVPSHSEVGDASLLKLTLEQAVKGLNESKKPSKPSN
Sequence of NDM-1 (C7C422 whole entry, looked up, species assumed): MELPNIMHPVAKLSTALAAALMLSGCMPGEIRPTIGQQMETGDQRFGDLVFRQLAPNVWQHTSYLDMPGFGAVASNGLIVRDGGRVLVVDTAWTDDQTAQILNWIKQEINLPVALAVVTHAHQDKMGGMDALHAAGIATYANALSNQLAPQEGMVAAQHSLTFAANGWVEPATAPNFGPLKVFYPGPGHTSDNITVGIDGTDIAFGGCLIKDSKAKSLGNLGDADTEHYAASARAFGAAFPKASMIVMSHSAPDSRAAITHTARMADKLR

Row | SMILES | IC50 (NDM-1) [nM] | IC50 (IMP-1) [nM] | P. aeruginosa expressing IMP-1, efflux− (MB9799) MITC95 [1] [µM] | P. aeruginosa expressing IMP-1, efflux+ (MB9798) MITC95 [2] [µM] | Efflux ratio [2] | IC50 (VIM-1) [nM] | Klebsiella pneumoniae expressing VIM-1 (IHMA599644) MITC95 [3] [µM] | Serratia marcescens expressing IMP-1 (CL5741) MITC95 [4] [µM] | Escherichia coli expressing NDM-1 (CLB30016) MITC95 [5] [µM] | Klebsiella pneumoniae MITC95 [3] [µM] | Serratia marcescens MITC95 [4] [µM] | Escherichia coli MITC95 [5] [µM]
1 | Cc1n[nH]c2cc(F)c(-c3ccc(S(=O)(=O)CCN)c(S(N)(=O)=O)c3-c3nnn[nH]3)cc12.O=C(O)C(F)(F)F [Example 162, 2-((4-(6-fluoro-3-methyl-1H-indazol-5-yl)-2-sulfamoyl-3-(1H-tetrazol-5-yl)phenyl)sulfonyl)ethanaminium 2,2,2-trifluoroacetate] | 2.78 | 2.81 | 1.563 | 100 | 63.98 | 0.32 | 6.25 | 3.125 | 3.125 | – | – | –
2 | NCCS(=O)(=O)c1ccc(-c2cccc3cc(N)ncc23)c(-c2nn[nH]n2)c1S(N)(=O)=O [Example 73, 6-(2-aminoethylsulfonyl)-3-(3-aminoisoquinolin-8-yl)-2-(2H-tetrazol-5-yl)benzenesulfonamide] | 0.109 | 0.214 | 1.563 | 1.563 | 1.00 | 0.241 | 3.125 | 3.125 | 0.7813 | – | – | –
3 | CS(=O)(=O)c1ccc(-c2cccc3cn[nH]c23)c(-c2nn[nH]n2)c1S(N)(=O)=O [Example 191, 3-(1H-indazol-7-yl)-6-(methylsulfonyl)-2-(2H-tetrazol-5-yl)benzenesulfonamide] | 0.436 | 0.21 | 1.563 | 25 | 15.99 | 0.298 | 6.25 | 3.125 | 3.125 | – | – | –
4 | Cn1ncc2cccc(-c3ccc(S(=O)(=O)C4CNC4)c(S(N)(=O)=O)c3-c3nnn[nH]3)c21.O=C(O)C(F)(F)F [Example 130, 3-((4-(1-methyl-1H-indazol-7-yl)-2-sulfamoyl-3-(1H-tetrazol-5-yl)phenyl)sulfonyl)azetidin-1-ium 2,2,2-trifluoroacetate] | 0.23 | 1.69 | 3.125 | 12.5 | 4.00 | 0.248 | 6.25 | 6.25 | 1.563 | – | – | –
5 | Cn1cc2ccc(-c3ccc(S(=O)(=O)CCN)c(S(N)(=O)=O)c3-c3nnn[nH]3)cc2n1.O=C(O)C(F)(F)F [Example 154, 2-((4-(2-methyl-2H-indazol-6-yl)-2-sulfamoyl-3-(1H-tetrazol-5-yl)phenyl)sulfonyl)ethanaminium 2,2,2-trifluoroacetate] | 1.13 | 0.676 | 1.563 | 12.5 | 8.00 | 0.43 | 6.25 | 3.125 | 3.125 | – | – | –
6 | NCCS(=O)(=O)c1ccc(-c2cccc(-n3ccnc3)c2)c(-c2nnn[nH]2)c1S(N)(=O)=O [Example 345, 4-((2-Aminoethyl)sulfonyl)-3′-(1H-imidazol-1-yl)-2-(1H-tetrazol-5-yl)-[1,1′-biphenyl]-3-sulfonamide] | 1.96 | 0.857 | 0.7813 | 25 | 32.00 | 0.434 | – | – | – | 3.125 | 1.563 | 0.7813
7 | NCCS(=O)(=O)c1ccc(-c2cccc(C(=O)O)c2N)c(-c2nn[nH]n2)c1S(N)(=O)=O [Example 199, 2-Amino-4′-((2-aminoethyl)sulfonyl)-3′-sulfamoyl-2′-(2H-tetrazol-5-yl)-[1,1′-biphenyl]-3-carboxylic Acid] | 0.197 | 1.84 | 6.25 | 12.5 | 2.00 | 0.646 | 25 | 12.5 | 6.25 | – | – | –
8 | Cc1ccc(-c2ccc(S(=O)(=O)CCN)c(S(N)(=O)=O)c2-c2nn[nH]n2)c2nc(N)sc12 [Example 80, 3-(2-amino-7-methylbenzo[d]thiazol-4-yl)-6-(2-aminoethylsulfonyl)-2-(2H-tetrazol-5-yl)benzenesulfonamide] | 0.0508 | 0.085 | 0.7813 | 0.7813 | 1.00 | 0.11 | 1.563 | 0.7813 | 1.172 | – | – | –
9 | NC[C@H](O)CS(=O)(=O)c1ccc(-c2cccc3[nH]cnc23)c(-c2nn[nH]n2)c1S(N)(=O)=O [Example 353, (S)-6-((3-amino-2-hydroxypropyl)sulfonyl)-3-(1H-benzo[d]imidazol-4-yl)-2-(2H-tetrazol-5-yl) benzenesulfonamide] | 0.185 | 0.392 | 0.7813 | 0.7813 | 1.00 | 0.202 | – | – | – | 3.125 | 1.563 | 1.563
